Experimental data: patent publication US10023543B2 (CELGENE QUANTICEL RESEARCH, INC., priority 2014, dated 2018)
Structures can show the parent of a compound that is named as a salt. Where two headings read alike, the source gives them in different places.

Assays:
Kasumi-1 = Kasumi-1 AML cell line proliferation assay (Cell-MTS assay); type: cell-based; settings: Homo sapiens, 168 hours
Excerpt: Colorimetric cellular assay to assess the ability of LSD-1 small molecule inhibitors to effect the proliferation of the established AML cancer cell line Kasumi-1.
This Cell-MTS assay is a 7-day plate based colorimetric assay which quantifies the amount of newly generated NADH in the presence and absence of test compound. These NADH levels are used as a proxy for the quantification of cancer cell proliferation.
The established cancer cell line Kasumi-1 with a verified p53 mutation were purchased from American Type Culture Collection (ATCC) and routinely passaged according to ATCC published protocols. For routine assay these cells were seeded at a density of 20,000 cells per 96-well. […] At the end of this compound incubation period, 80 μl of media is removed and 20 μL of CellTiter 96® AQueous Non-Radioactive Cell Proliferation Assay solution (Promega) is added. The cells are incubated until the OD490 is >0.6. IC50 values are calculated using the IDBS XLfit software package and include background subtracted OD490 values and normalization to DMSO controls.

THP-1 (AML) cells = experiment: LSD1 CD11b cellular assay (flow cytometry); type: cell-based; settings: Homo sapiens, THP-1, 96 h
[1] = CD11b expressing cells, 4 days, read-out: THP-1 IC50

Structure (SMILES) | IC50 (Kasumi-1) [nM] | IC50 (THP-1 (AML) cells; read-out: THP-1 IC50 (μM)) [µM] | IC50 (THP-1 (AML) cells; [1]) [µM]
Cc1ccc(-c2c(-c3ccc(C#N)cc3)nc(N3CCC(N)CC3)n(C)c2=O)cc1 [Example 1, 4-(2-(4-aminopiperidin-1-yl)-1-methyl-6-oxo-5-p-tolyl-1,6-dihydropyrimidin-4-yl)benzonitrile, HCl salt] | < 100 | < 0.1 | –
COc1ccc(-c2c(-c3ccc(C#N)cc3)nc(N3CCC(N)CC3)n(C)c2=O)cn1 [Example 3, 4-[2-(4-amino-piperidin-1-yl)-5-(6-methoxy-pyridin-3-yl)-1-methyl-6-oxo-1,6-dihydro-pyrimidin-4-yl]-benzonitrile] | < 100 | – | < 0.1
COc1ccc(-c2c(-c3ccc(C#N)c(F)c3)nc(N3CC[C@H](N)[C@H](F)C3)n(C)c2=O)cc1 [Example 79, 4-[2-((4S,3R)-4-amino-3-fluoro-piperidin-1-yl)-5-(4-methoxy-phenyl)-1-methyl-6-oxo-1,6-dihydro-pyrimidin-4-yl]-2-fluoro-benzonitrile] | – | – | < 0.1
CN(C)C1CCN(c2nc(-c3ccc(C#N)c(F)c3)c(-c3ccc4cn(C)nc4c3)c(=O)n2C)CC1 [Example 80, 4-[2-(4-dimethylamino-piperidin-1-yl)-1-methyl-5-(2-methyl-2H-indazol-6-yl)-6-oxo-1,6-dihydro-pyrimidin-4-yl]-2-fluoro-benzonitrile] | – | – | < 0.1
CN(C)c1ncc(-c2c(-c3ccc(C#N)c(F)c3)nc(N3CCC(N(C)C)CC3)n(C)c2=O)cn1 [Example 81, 4-[2′-dimethylamino-2-(4-dimethylamino-piperidin-1-yl)-1-methyl-6-oxo-1,6-dihydro-[5,5′]bipyrimidinyl-4-yl]-2-fluoro-benzonitrile] | – | – | 0.1 to 1
Cc1ccc(-c2c(-c3ccc(C#N)c(F)c3)nc(N3CCC(N(C)C)CC3)n(C)c2=O)cn1 [Example 82, 4-[2-(4-dimethylamino-piperidin-1-yl)-1-methyl-5-(6-methyl-pyridin-3-yl)-6-oxo-1,6-dihydro-pyrimidin-4-yl]-2-fluoro-benzonitrile] | – | – | 0.1 to 1
CNC1CCN(c2nc(-c3ccc(C#N)c(F)c3)c(-c3ccc(N(C)C)nc3)c(=O)n2C)CC1 [Example 83, 4-[5-(6-dimethylamino-pyridin-3-yl)-1-methyl-2-(4-methylamino-piperidin-1-yl)-6-oxo-1,6-dihydro-pyrimidin-4-yl]-2-fluoro-benzonitrile] | – | – | < 0.1
CN(C)C1CCN(c2nc(-c3ccc(C#N)c(F)c3)c(-c3ccc4cn[nH]c4c3)c(=O)n2C)CC1 [Example 84, 4-[2-(4-dimethylamino-piperidin-1-yl)-5-(2H-indazol-6-yl)-1-methyl-6-oxo-1,6-dihydro-pyrimidin-4-yl]-2-fluoro-benzonitrile] | – | – | < 0.1
CNC1CCN(c2nc(-c3ccc(C#N)c(F)c3)c(-c3ccc4c(cnn4C)c3)c(=O)n2C)CC1 [Example 87, 2-fluoro-4-[1-methyl-2-[4-(methylamino)piperidin-1-yl]-5-(1-methylindazol-5-yl)-6-oxopyrimidin-4-yl]benzonitrile] | – | – | < 0.1
Cn1c(N2CCC(N)CC2)nc(-c2ccc(C#N)c(F)c2)c(-c2ccc(N)cc2)c1=O [Example 89, 4-[5-(4-aminophenyl)-2-(4-aminopiperidin-1-yl)-1-methyl-6-oxopyrimidin-4-yl]-2-fluorobenzonitrile] | – | – | < 0.1
CNc1ccc(-c2c(-c3ccc(C#N)c(F)c3)nc(N3CCC(N)CC3)n(C)c2=O)cc1 [Example 90, 4-[2-(4-aminopiperidin-1-yl)-1-methyl-5-[4-(methylamino)phenyl]-6-oxopyrimidin-4-yl]-2-fluorobenzonitrile] | – | – | < 0.1
CNc1ccc(-c2c(-c3ccc(C#N)c(F)c3)nc(N3CCC(N)CC3)n(C)c2=O)cc1F [Example 91, 4-[2-(4-aminopiperidin-1-yl)-5-[3-fluoro-4-(methylamino)phenyl]-1-methyl-6-oxopyrimidin-4-yl]-2-fluorobenzonitrile] | – | – | < 0.1
COc1ccc(-c2c(-c3ccc(C#N)c(F)c3)nc(N3CCC(N(C)C)CC3)n(C)c2=O)cn1 [Example 92, 4-[2-[4-(dimethylamino)piperidin-1-yl]-5-(6-methoxypyridin-3-yl)-1-methyl-6-oxopyrimidin-4-yl]-2-fluorobenzonitrile] | – | – | < 0.1
CCOc1ncc(-c2c(-c3ccc(C#N)c(F)c3)nc(N3CCC(N)CC3)n(C)c2=O)cc1F [Example 93, 4-[2-(4-aminopiperidin-1-yl)-5-(6-ethoxy-5-fluoropyridin-3-yl)-1-methyl-6-oxopyrimidin-4-yl]-2-fluorobenzonitrile] | – | – | < 0.1
CCOc1ccc(-c2c(-c3ccc(C#N)c(F)c3)nc(N3CCC(N)CC3)n(C)c2=O)cn1 [Example 94, 4-[2-(4-aminopiperidin-1-yl)-5-(6-ethoxypyridin-3-yl)-1-methyl-6-oxopyrimidin-4-yl]-2-fluorobenzonitrile] | – | – | < 0.1
CCOc1ccc(-c2c(-c3ccc(C#N)c(F)c3)nc(N3CCC(N)CC3)n(C)c2=O)cc1 [Example 95, 4-[2-(4-aminopiperidin-1-yl)-5-(4-ethoxyphenyl)-1-methyl-6-oxopyrimidin-4-yl]-2-fluorobenzonitrile] | – | – | < 0.1

Structure (SMILES) | IC50 (Kasumi-1) [nM] | IC50 (THP-1 (AML) cells; read-out: THP-1 IC50 (μM)) [µM] | IC50 (THP-1 (AML) cells; [1]) [µM]
Cn1c(N2CCC(N)CC2)nc(-c2ccc(C#N)cc2)c(-c2ccc(OCCO)cc2)c1=O [Example 97, 4-[2-(4-aminopiperidin-1-yl)-5-[4-(2-hydroxyethoxy)phenyl]-1-methyl-6-oxopyrimidin-4-yl]benzonitrile] | – | – | < 0.1
COCCOc1ccc(-c2c(-c3ccc(C#N)c(F)c3)nc(N3CCC(N)CC3)n(C)c2=O)cc1 [Example 98, 4-[2-(4-aminopiperidin-1-yl)-5-[4-(2-methoxyethoxy)phenyl]-1-methyl-6-oxopyrimidin-4-yl]-2-fluorobenzonitrile] | – | – | < 0.1
Cn1c(N2CCC(N)CC2)nc(-c2ccc(C#N)c(F)c2)c(-c2ccc(CCO)cc2)c1=O [Example 99, 4-[2-(4-aminopiperidin-1-yl)-5-[4-(2-hydroxyethyl)phenyl]-1-methyl-6-oxopyrimidin-4-yl]-2-fluorobenzonitrile] | – | – | < 0.1
Cn1c(N2CCC(N)CC2)nc(-c2ccc(C#N)c(F)c2)c(-c2ccc(CO)cc2)c1=O [Example 100, 4-[2-(4-aminopiperidin-1-yl)-5-[4-(hydroxymethyl)phenyl]-1-methyl-6-oxopyrimidin-4-yl]-2-fluorobenzonitrile] | – | – | < 0.1
Cn1c(N2CCC(N)CC2)nc(-c2ccc(C#N)c(F)c2)c(-c2ccc(F)cc2)c1=O [Example 101, 4-[2-(4-aminopiperidin-1-yl)-5-(4-fluorophenyl)-1-methyl-6-oxopyrimidin-4-yl]-2-fluorobenzonitrile] | – | – | < 0.1
Cn1c(N2CCC(N)CC2)nc(-c2ccc(C#N)c(F)c2)c(-c2cccc(F)c2)c1=O [Example 102, 4-[2-(4-aminopiperidin-1-yl)-5-(3-fluorophenyl)-1-methyl-6-oxopyrimidin-4-yl]-2-fluorobenzonitrile] | – | – | < 0.1
Cn1c(N2CCC(N)CC2)nc(-c2ccc(C#N)c(F)c2)c(-c2cc(F)cc(F)c2)c1=O [Example 103, 4-[2-(4-aminopiperidin-1-yl)-5-(3,5-difluorophenyl)-1-methyl-6-oxopyrimidin-4-yl]-2-fluorobenzonitrile] | – | – | < 0.1
Cn1c(N2CCC(N)CC2)nc(-c2ccc(C#N)c(F)c2)c(-c2ccc(F)c(F)c2)c1=O [Example 104, 4-[2-(4-aminopiperidin-1-yl)-5-(3,4-difluorophenyl)-1-methyl-6-oxopyrimidin-4-yl]-2-fluorobenzonitrile] | – | – | < 0.1
Cn1c(N2CCC(N)CC2)nc(-c2ccc(C#N)c(F)c2)c(-c2ccc(S(C)(=O)=O)cc2)c1=O [Example 105, 4-[2-(4-aminopiperidin-1-yl)-1-methyl-5-(4-methylsulfonylphenyl)-6-oxopyrimidin-4-yl]-2-fluorobenzonitrile] | – | – | < 0.1
Cn1c(N2CCC(N)CC2)nc(-c2ccc(C#N)c(F)c2)c(-c2ccc(Cl)cc2)c1=O [Example 106, 4-[2-(4-aminopiperidin-1-yl)-5-(4-chlorophenyl)-1-methyl-6-oxopyrimidin-4-yl]-2-fluorobenzonitrile] | – | – | < 0.1
COCc1ccc(-c2c(-c3ccc(C#N)c(F)c3)nc(N3CCC(N)CC3)n(C)c2=O)cc1 [Example 107, 4-[2-(4-aminopiperidin-1-yl)-5-[4-(methoxymethyl)phenyl]-1-methyl-6-oxopyrimidin-4-yl]-2-fluorobenzonitrile] | – | – | < 0.1
Cn1c(N2CCC(N)CC2)nc(-c2ccc(C#N)c(F)c2)cc1=O [Example 108, 4-[2-(4-aminopiperidin-1-yl)-1-methyl-6-oxopyrimidin-4-yl]-2-fluorobenzonitrile] | – | – | 0.1 to 1
C#Cc1c(-c2ccc(C#N)c(F)c2)nc(N2CCC(N)CC2)n(C)c1=O [Example 110] | – | – | 0.1 to 1
COc1ccc(-c2c(-c3ccc(Cl)c(F)c3)nc(N3CCC(N)CC3)n(C)c2=O)cc1 [Example 111, 2-(4-amino-piperidin-1-yl)-6-(4-chloro-3-fluoro-phenyl)-5-(4-methoxy-phenyl)-3-methyl-3H-pyrimidin-4-one] | – | – | 0.1 to 1
COc1ccc(-c2c(-c3ccc(C#N)c(F)c3)nc(N3CCC(N)CC3)[nH]c2=O)cc1 [Example 122, 4-[2-(4-amino-piperidin-1-yl)-5-(4-methoxy-phenyl)-6-oxo-1,6-dihydro-pyrimidin-4-yl]-2-fluoro-benzonitrile] | – | – | < 0.1
